Holding throughout (assay type): functional, organism-based
Common to all, as to settings: dose 50.0 µg

Assay [1] concerns Bacillus subtilis. Kind of assay: Antibacterial activity against Bacillus subtilis assessed as inhibition of bacterial growth at 50 ug incubated for 24 hrs by paper disc method.
For assay [2], the system named is Staphylococcus aureus. Kind of assay: Antibacterial activity against Staphylococcus aureus assessed as inhibition of bacterial growth at 50 ug incubated for 24 hrs by paper disc method.
The test system of assay [3] is Escherichia coli. As to the kind of experiment: Antibacterial activity against Escherichia coli assessed as inhibition of bacterial growth at 50 ug incubated for 24 hrs by paper disc method.

The source made the active and inactive calls. No cut-off for these calls is given here.

Consider `OCC(O)CO`, for which the result in assay [1], in assay [2] and in assay [3] was inactive.
In the case of `CC/C=C\C[C@H]1C(=O)CC[C@@H]1CC(=O)O`, the outcome in assay [1], in assay [2] and in assay [3] was inactive.
`CC/C=C\C[C@@H]1C(=O)C=C[C@@H]1CCCCCCCC(=O)OCC(O)CO` (some centres not stated): the result in assay [1] and in assay [2] was Active. Further, the result in assay [3] was inactive.
For `CC/C=C\C[C@@H]1C(=O)C=C[C@@H]1CCCCCCCC(=O)O`, the outcome in assay [1] and in assay [2] was Active. In assay [3], the result was inactive.

(Values after ChEMBL document CHEMBL5634177, “Isolation and Structure Determination of cis-OPDA-α-Monoglyceride from Arabidopsis thaliana” (J Nat Prod, 2024).)
